Experimental data taken from publication PMC3445516 (PLoS ONE, 2012).

Assays:
Assay in all cases: Ambit kinase profiling, competition binding
[1] = biological target: T1, MLK1 (Homo sapiens, UniProt P80192); conditions: compound concentration 10 uM, read-out: Percent Competition
T1 construct: purchased Ambit Biosciences (KINOMEscan)
Description: (§1) Supplement pone.0044653.s004.xls, sheet "Compound 122" | column: Percent Competition

[2] = biological target: T2, MLK3 (Homo sapiens, UniProt Q16584); conditions: compound concentration 10 uM
T2 construct: purchased Ambit Biosciences (KINOMEscan)
Description: as §1

[3] = biological target: T3, PIK3CD (Homo sapiens, UniProt O00329); conditions: compound concentration 10 uM, read-out: Percent Competition
T3 construct: purchased Ambit Biosciences (KINOMEscan)
Description: as §1

[4] = biological target: T4, MAP3K4 (Homo sapiens, UniProt Q9Y6R4); conditions: compound concentration 10 uM, read-out: Percent Competition
T4 construct: purchased Ambit Biosciences (KINOMEscan)
Description: as §1

[5] = biological target: T5, MYLK2 (Homo sapiens, UniProt Q9H1R3); conditions: compound concentration 10 uM, read-out: Percent Competition
T5 construct: purchased Ambit Biosciences (KINOMEscan)
Description: as §1

[6] = biological target: T6, BMPR2 (Homo sapiens, UniProt Q13873); conditions: compound concentration 10 uM
T6 construct: purchased Ambit Biosciences (KINOMEscan)
Description: as §1

[7] = biological target: T7, RPS6KA4(Kin.Dom.2-C-terminal) (Homo sapiens, UniProt O75676); conditions: compound concentration 10 uM, read-out: Percent Competition
T7 construct: RPS6KA4(Kin.Dom.2-C-terminal); purchased Ambit Biosciences (KINOMEscan)
Description: as §1

[8] = biological target: T8, MEK1 (Homo sapiens, UniProt Q02750); conditions: compound concentration 10 uM, read-out: Percent Competition
T8 construct: purchased Ambit Biosciences (KINOMEscan)
Description: as §1

[9] = biological target: T9, FER (Homo sapiens, UniProt P16591); conditions: compound concentration 10 uM, read-out: Percent Competition
T9 construct: purchased Ambit Biosciences (KINOMEscan)
Description: as §1

[10] = biological target: T10, MAP4K3 (Homo sapiens, UniProt Q8IVH8); conditions: compound concentration 10 uM
T10 construct: purchased Ambit Biosciences (KINOMEscan)
Description: as §1

[11] = biological target: T11, EPHA7 (Homo sapiens, UniProt Q15375); conditions: compound concentration 10 uM, read-out: Percent Competition
T11 construct: purchased Ambit Biosciences (KINOMEscan)
Description: as §1

[12] = biological target: T12, MLK2 (Homo sapiens, UniProt Q02779); conditions: compound concentration 10 uM, read-out: Percent Competition
T12 construct: purchased Ambit Biosciences (KINOMEscan)
Description: as §1

[13] = biological target: T13, CAMKK1 (Homo sapiens, UniProt Q8N5S9); conditions: compound concentration 10 uM, read-out: Percent Competition
T13 construct: purchased Ambit Biosciences (KINOMEscan)
Description: as §1

[14] = biological target: T14, AKT1 (Homo sapiens, UniProt P31749); conditions: compound concentration 10 uM, read-out: Percent Competition
T14 construct: purchased Ambit Biosciences (KINOMEscan)
Description: as §1

[15] = biological target: T15, BRSK2 (Homo sapiens, UniProt Q8IWQ3); conditions: compound concentration 10 uM, read-out: Percent Competition
T15 construct: purchased Ambit Biosciences (KINOMEscan)
Description: as §1

[16] = biological target: T16, EPHA2 (Homo sapiens, UniProt P29317); conditions: compound concentration 10 uM, read-out: Percent Competition
T16 construct: purchased Ambit Biosciences (KINOMEscan)
Description: as §1

[17] = biological target: T17, MST1 (Homo sapiens, UniProt Q13043); conditions: compound concentration 10 uM
T17 construct: purchased Ambit Biosciences (KINOMEscan)
Description: as §1

[18] = biological target: T18, CSNK2A1 (Homo sapiens, UniProt P68400); conditions: compound concentration 10 uM, read-out: Percent Competition
T18 construct: purchased Ambit Biosciences (KINOMEscan)
Description: as §1

[19] = biological target: T19, MYO3A (Homo sapiens, UniProt Q8NEV4); conditions: compound concentration 10 uM, read-out: Percent Competition
T19 construct: purchased Ambit Biosciences (KINOMEscan)
Description: as §1

[20] = biological target: T20, VEGFR2 (Homo sapiens, UniProt P35968); conditions: compound concentration 10 uM, read-out: Percent Competition
T20 construct: purchased Ambit Biosciences (KINOMEscan)
Description: as §1

[21] = biological target: T21, RPS6KA3(Kin.Dom.1-N-terminal) (Homo sapiens, UniProt P51812); conditions: compound concentration 10 uM, read-out: Percent Competition
T21 construct: RPS6KA3(Kin.Dom.1-N-terminal); purchased Ambit Biosciences (KINOMEscan)
Description: as §1

[22] = biological target: T22, PDGFRB (Homo sapiens, UniProt P09619); conditions: compound concentration 10 uM, read-out: Percent Competition
T22 construct: purchased Ambit Biosciences (KINOMEscan)
Description: as §1

[23] = biological target: T23, MAPKAPK2 (Homo sapiens, UniProt P49137); conditions: compound concentration 10 uM, read-out: Percent Competition
T23 construct: purchased Ambit Biosciences (KINOMEscan)
Description: as §1

[24] = biological target: T24, SgK110 (Homo sapiens, UniProt P0C264); conditions: compound concentration 10 uM, read-out: Percent Competition
T24 construct: purchased Ambit Biosciences (KINOMEscan)
Description: as §1

[25] = biological target: T25, MKNK2 (Homo sapiens, UniProt Q9HBH9); conditions: compound concentration 10 uM, read-out: Percent Competition
T25 construct: purchased Ambit Biosciences (KINOMEscan)
Description: as §1

[26] = biological target: T26, SIK (Homo sapiens, UniProt P57059); conditions: compound concentration 10 uM
T26 construct: purchased Ambit Biosciences (KINOMEscan)
Description: as §1

[27] = biological target: T27, MST2 (Homo sapiens, UniProt Q13188); conditions: compound concentration 10 uM, read-out: Percent Competition
T27 construct: purchased Ambit Biosciences (KINOMEscan)
Description: as §1

[28] = biological target: T28, RPS6KA5(Kin.Dom.2-C-terminal) (Homo sapiens, UniProt O75582); conditions: compound concentration 10 uM, read-out: Percent Competition
T28 construct: RPS6KA5(Kin.Dom.2-C-terminal); purchased Ambit Biosciences (KINOMEscan)
Description: as §1

[29] = biological target: T29, YSK1 (Homo sapiens, UniProt O00506); conditions: compound concentration 10 uM, read-out: Percent Competition
T29 construct: purchased Ambit Biosciences (KINOMEscan)
Description: as §1

[30] = biological target: T30, CSNK2A2 (Homo sapiens, UniProt P19784); conditions: compound concentration 10 uM, read-out: Percent Competition
T30 construct: purchased Ambit Biosciences (KINOMEscan)
Description: as §1

[31] = biological target: T31, ZAP70 (Homo sapiens, UniProt P43403); conditions: compound concentration 10 uM, read-out: Percent Competition
T31 construct: purchased Ambit Biosciences (KINOMEscan)
Description: as §1

[32] = biological target: T32, WEE2 (Homo sapiens, UniProt P0C1S8); conditions: compound concentration 10 uM, read-out: Percent Competition
T32 construct: purchased Ambit Biosciences (KINOMEscan)
Description: as §1

[33] = biological target: T33, FLT3(K663Q) (Homo sapiens, UniProt P36888, K663Q); conditions: compound concentration 10 uM, read-out: Percent Competition
T33 construct: purchased Ambit Biosciences (KINOMEscan)
Description: as §1

[34] = biological target: T34, IGF1R (Homo sapiens, UniProt P08069); conditions: compound concentration 10 uM, read-out: Percent Competition
T34 construct: purchased Ambit Biosciences (KINOMEscan)
Description: as §1

[35] = biological target: T35, ZAK (Homo sapiens, UniProt Q9NYL2); conditions: compound concentration 10 uM, read-out: Percent Competition
T35 construct: purchased Ambit Biosciences (KINOMEscan)
Description: as §1

[36] = biological target: T36, TXK (Homo sapiens, UniProt P42681); conditions: compound concentration 10 uM, read-out: Percent Competition
T36 construct: purchased Ambit Biosciences (KINOMEscan)
Description: as §1

[37] = biological target: T37, NEK2 (Homo sapiens, UniProt P51955); conditions: compound concentration 10 uM, read-out: Percent Competition
T37 construct: purchased Ambit Biosciences (KINOMEscan)
Description: as §1

[38] = biological target: T38, CLK3 (Homo sapiens, UniProt P49761); conditions: compound concentration 10 uM, read-out: Percent Competition
T38 construct: purchased Ambit Biosciences (KINOMEscan)
Description: as §1

[39] = biological target: T39, PAK1 (Homo sapiens, UniProt Q13153); conditions: compound concentration 10 uM, read-out: Percent Competition
T39 construct: purchased Ambit Biosciences (KINOMEscan)
Description: as §1

[40] = biological target: T40, TNK1 (Homo sapiens, UniProt Q13470); conditions: compound concentration 10 uM, read-out: Percent Competition
T40 construct: purchased Ambit Biosciences (KINOMEscan)
Description: as §1

- inhibition at 10 µM [1]: < 50%
- Percent Competition [2]: <50%
- inhibition at 10 µM [3]: < 50%
- inhibition at 10 µM [4]: < 50%
- inhibition at 10 µM [5]: < 50%
- Percent Competition [6]: <50%
- inhibition at 10 µM [7]: < 50%
- inhibition at 10 µM [8]: < 50%
- inhibition at 10 µM [9]: < 50%
- Percent Competition [10]: <50%
- inhibition at 10 µM [11]: < 50%
- inhibition at 10 µM [12]: < 50%
- inhibition at 10 µM [13]: < 50%
- inhibition at 10 µM [14]: < 50%
- inhibition at 10 µM [15]: < 50%
- inhibition at 10 µM [16]: < 50%
- Percent Competition [17]: <50%
- inhibition at 10 µM [18]: < 50%
- inhibition at 10 µM [19]: < 50%
- inhibition at 10 µM [20]: < 50%
- inhibition at 10 µM [21]: < 50%
- inhibition at 10 µM [22]: < 50%
- inhibition at 10 µM [23]: < 50%
- inhibition at 10 µM [24]: < 50%
- inhibition at 10 µM [25]: < 50%
- Percent Competition [26]: <50%
- inhibition at 10 µM [27]: < 50%
- inhibition at 10 µM [28]: < 50%
- inhibition at 10 µM [29]: < 50%
- inhibition at 10 µM [30]: < 50%
- inhibition at 10 µM [31]: < 50%
- inhibition at 10 µM [32]: < 50%
- inhibition at 10 µM [33]: < 50%
- inhibition at 10 µM [34]: < 50%
- inhibition at 10 µM [35]: < 50%
- inhibition at 10 µM [36]: < 50%
- inhibition at 10 µM [37]: < 50%
- inhibition at 10 µM [38]: < 50%
- inhibition at 10 µM [39]: < 50%
- inhibition at 10 µM [40]: < 50%
SMILES: Fc1ccc(-c2c(-c3ccncc3)[nH]c3nccnc23)cc1 [RO1155697-000-005]
